Converted amounts (≈) assume the structure as drawn. Like-named read-outs stand apart in the source and are kept apart here.
Experiments:
[1] = system: bone marrow stem cells; test: bone marrow stem cell proliferation (XTT); assay type: cell-based, C57/BL6 mice; conditions: for Max amplitude: 7 days, XTT 492 nm; for Min amplitude: blank ± 3× standard deviation; for Max concentration: concentration at maximum amplitude; for EC50 conc: concentration corresponding to 50% of maximum amplitude; for Min concentration: lowest concentration inducing a significant proliferation
Description: 6-week old male C57/BL6 mice are killed by CO2 inhalation. The hip, femur, tibia and hind leg bones are removed. The marrow is extracted from the bone lumen by injecting Dulbecco's Modified Eagle Medium (DH medium) from the end portions which had been excised. The stem cells are washed and suspended again in DH medium supplemented with 20% foetal calf serum (FCS) The cell concentration is adjusted to 500000 cells/ml.
Products previously dissolved in DH medium supplemented with 20% FCS, amino acids and antibiotics are serially diluted directly into a microtiter plate. The products are tested in triplicate and each microtiter plate includes a negative control containing plain medium. The final volume in each well is 100 μl.
100 μl of the cell suspension are added to diluted solutions of products and the cells are incubated for 7 days in an incubator at 37° C., under 8% CO2 and a moisture saturated atmosphere. Cell proliferation is determined by measuring the […] of a chromogenic substrate XTT (2,3-bis[2-methoxy-4-nitro-5-sulphophenyl]-2H-tetrazolium-5-carboxanilide) in mitochondria of viable cells.
At the end of the incubation period, 50 μl of the XTT substrate solution (1 mg/ml XTT+0.008 mg/ml phenazine methosulfate) are added to each well. After an 8 hour incubation period at 37° C. under 8% CO2 in a moisture saturated incubator, the microtiter plates are read with a spectrophotometer at 492 nm against a reference sample at 690 nm.
Results are expressed as mean value±standard deviation and plotted as a dose versus response curve. Values for a negative control composed of DH medium (mean±standard deviation) are also graphically shown.
From this dose versus response curve, 3 curve variables are computed:
Max: maximum curve amplitude and corresponding concentration
EC50: concentration corresponding to 50% of maximum amplitude
Min: lowest concentration inducing a significant proliferation corresponding to the blank±3× standard deviation value
Concentration values corresponding to EC50 and Min are determined from line segments joining different points on the curve.
If the curve has no plateau phase but an ascending configuration for the highest concentration being tested, a “>” sign is shown before Max and EC50 values.

[2] = system: predendritic cells (DC-6); test: dendritic cell differentiation test: FITC-Dextran take-up; assay type: cell-based, human; conditions: for Dextran % CD: products redissolved in pyrogen-free water, % of dendritic cells; for Dextran Fluorescence: mean fluorescence value; for concentration inducing differentiation of DC-6 cells into DC-9 cells: summary of phagocytosis and marker data
Experimental: The ability of products of the invention to induce maturation of predendritic cells into dendritic cells was assessed. The following parameters were measured: FITC-Dextran conjugate take-up and expression of CD83, CD86 surface markers.
Mononucleated cells of peripheral blood are isolated from buffy coats of healthy donors. Purified monocytes by adherence selection are resuspended in RPMI-1640 medium containing 10% of foetal calf serum (FCS), GM-CSF and IL-4 (10 ng/ml) at a density of 1×10^6 cells/ml. Cells are divided into Petri Dishes (10×10^6 cells per dish) and cultured for 6 days with a change to fresh medium after 3 days. Cells thus obtained are called predendritic cells (DC-6). Maturation of predendritic cells into mature dendritic cells is achieved by incubating cells with diluted solutions of the products or LPS (positive control) for 3 more days (see product section below). At day 9 (DC-9), cells are harvested and analyzed for different indicators of dendritic cell maturation: assessment of CD83, CD86 surface marker expression as well as of their ability to take up FITC-Dextran conjugate. All these parameters are analyzed by an EPICS-XL-MCL model FACS (Coulter Immunology, Hialeah, […]).
Expression of surface markers is given as % of mean fluorescence of LPS-activated cells (positive control); FITC-Dextran conjugate take-up rate is calculated based on take-up of cells maintained in basic medium and is expressed in %.
Solutions are incubated at 37° C. for 20 minutes, subjected to vigorous stirring during 3 minutes and then diluted to 100 μg/ml in RPMI-1640 culture medium and used in diluted state at concentrations ranging from 10 μg/ml to 0.03 μg/ml. Reference Product: E. coli lipopolysaccharide (LPS, DIFCO, Detroit, Mich., U.S.A.), as a 5 mg/ml stock solution in PBS. An intermediate 100 μg/ml solution is prepared in RPMI 1640 culture medium. Concentrations of dilute solutions being tested range from 1 μg/ml to 0.03 μg/ml.
In another series of experiments, all acyl dipeptide-like compounds were freeze-dried and directly redissolved into pyrogen-free water. Different products as well as LPS control are tested at a concentration of 10 μg/ml. Results are given as % of dendritic cells and mean fluorescence value for dextran phagocytosis or CD86 surface marker expression.
Immature dendritic cells (DC-6) resulting from monocyte differentiation, through the joint action of GM-CSF and IL-4, are able to incorporate FITC-Dextran conjugate. During the maturation process, cells lose their ability to incorporate the FITC-Dextran conjugate. Assays are conducted upon reaching the DC-9 differentiation stage.

[3] = system: human peripheral blood mononuclear cells; test: α TNF production by human peripheral blood mononuclear cells; assay type: cell-based; conditions: for α TNF produced: 18 hours
Summary of the method: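 Ficoll-isolated PBMC from 6 healthy donors (2×10^6 viable cells/ml, RPMI-1640, 10% FCS) exposed in triplicate for 18 h at 37 °C, 5% CO2 to compounds diluted 100-, 10- or 1-fold. Secreted TNF-α measured by chemiluminescent ELISA on 4-fold diluted supernatants against a 0.7–7000 pg/ml standard curve; values in pg/ml.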

[4] = system: Limulus Amoebocyte Lysate
[5] = 1 EU = 0.08 ng E. coli 055:B5 LPS
[6] = acyl-dipeptide-like compounds, diluted 0.1 mg/ml solution

Structure (SMILES) | Max amplitude [1] [O.D] | Min amplitude [1] [O.D] | Max concentration [1] [µg/mL] | EC50 conc [1] [µg/mL] | Min concentration [1] [µg/mL] | Dextran % CD ([2]; 10 μg/ml) [%] | Dextran Fluorescence ([2]; 10 μg/ml) | effect on maturation of dendritic cells ([2]; 0.03 to 10 μg/ml) | concentration inducing differentiation of DC-6 cells into DC-9 cells [2] | α TNF produced ([3]; product 1 μg/ml) [pg/mL] | α TNF produced ([3]; product 10 μg/ml) [pg/mL] | α TNF produced ([3]; product 100 μg/ml) [pg/mL] | LAL EU/mg of product [4] | LAL ng of LPS equivalent per mg of product [4] | decrease of phagocytic capacity ([2]; 10 μg/ml) [%] | effect on phagocytosis ([2]; concentrations lower than 3 μg/ml) | concentration at which a significant α TNF production level is induced ([3]; only at this concentration) [µg/mL] | ability to induce differentiation of predendritic cells into dendritic cells ([2]; 10 μg/ml) | LAL ng of LPS equivalent per mg of product [4, 5] | LAL EU/mg of product [4, 6]
CCCCCCCCCCCC(=O)O[C@H](CCCCCCCCCCC)CC(=O)NC(CCOP(=O)(O)O)C(=O)NCCCC(COC(=O)CCCCC(O)CO)NC(=O)C[C@H](O)CCCCCCCCCCC (stereo partly drawn) [OM-197-FV6, 3-[(R)-dodecanoyloxytetradecanoylamino]-4oxo-5-aza-9-[(R)-3-hydroxytetradecanoylamino]-decan-1,10-diol 1-dihydrogenphate 10-(6,7-dihydroxyheptanoate)] | 1.52 | 0.80 | 50 | 5.7 (≈ 5.29 µM) | 1.60 | 84.5 | 6.3 | apparently no effect | totally lack such an activity | 0 | 104 | 88 | 540 EU/mg of product | 43 ng of LPS equivalent per mg of product | – | – | – | – | – | –
CCCCCCCCCCCC(=O)O[C@H](CCCCCCCCCCC)CC(=O)N[C@H](CC(=O)N[C@@H](CCCCN)C(=O)O)C(=O)NCCC[C@H](COC(=O)CCCCCN)NC(=O)C[C@H](O)CCCCCCCCCCC [OM-197-Lys-AC] | > 2.02 | 0.80 | > 50 | > 14.6 | 0.90 | 92.2 | 6.8 | – | – | 232 | 184 | 256 | <2.5 EU/mg of product | <0.2 ng of LPS equivalent per mg of product | – | – | – | – | – | –
CCCCCCCCCCCC(=O)O[C@H](CCCCCCCCCCC)CC(=O)N[C@H](CC(=O)N[C@@H](CCCCN)C(=O)O)C(=O)NCCC[C@H](CO)NC(=O)C[C@H](O)CCCCCCCCCCC [OM-197-Lys] | 1.56 | < 0.86 | 25 | 3.3 (≈ 3.31 µM) | < 0.39 | 12.1 | 0.5 | – | – | 284 | 164 | 20 | 3 EU/mg of product | 0.24 ng of LPS equivalent per mg of product | – | – | – | – | – | –
CCCCCCCCCCCC(=O)O[C@H](CCCCCCCCCCC)CC(=O)N[C@H](CC(=O)O)C(=O)NCCC[C@H](CO)NC(=O)C[C@H](O)CCCCCCCCCCC [OM-197-MC, N—[(R)-3-dodecanoyloxytetradecanoyl]-D-aspartic acid, α-N-{(4R)-5-hydroxy-4[(R)-3-hydroxytetradecanoylamino]-pentyl}amide] | 1.75 | 0.80 | 64 | 19.4 (≈ 22.3 µM) | 1.25 | – | – | – | greater than 1 μg/ml | 0 | 0 | 12 | 88.6 EU/mg of product | 7.4 ng of LPS equivalent per mg of product | 22 | no effect on phagocytosis | 100 | – | – | –
CCCCCCCCCCCC(=O)O[C@H](CCCCCCCCCCC)CC(=O)N[C@H](CC(=O)O)C(=O)NCCC[C@H](COC(=O)CCCCCNC(=O)CCC(=O)OC[C@H]1O[C@@H](n2cc(C)c(=O)[nH]c2=O)C[C@@H]1N=[N+]=[N-])NC(=O)C[C@H](O)CCCCCCCCCCC [OM-197-MC-AC-Succ-AZT] | 1.08 | 0.80 | 12.5 | 3.3 (≈ 2.48 µM) | 2.11 | 62.2 | 4.8 | – | – | 108 | 224 | 64 | – | – | – | – | – | significant ability to induce differentiation into dendritic cells | 0.11 ng of LPS equivalent per mg of product | 1.34 EU/mg of product
CCCCCCCCCCCC(=O)O[C@H](CCCCCCCCCCC)CC(=O)N[C@H](CC(=O)O)C(=O)NCCC[C@H](COC(=O)CCCCCNC(=O)CCC(=O)OC[C@@H]1C=C[C@H](n2cc(C)c(=O)[nH]c2=O)O1)NC(=O)C[C@H](O)CCCCCCCCCCC [OM-197-MC-AC-Succ-d4T] | 1.40 | 0.80 | 50 | 25.4 (≈ 19.7 µM) | 2.81 | 11.6 | 0.5 | – | – | 0 | 40 | 52 | – | – | – | – | – | – | 0.08 ng of LPS equivalent per mg of product | 1.05 EU/mg of product
CCCCCCCCCCCC(=O)O[C@H](CCCCCCCCCCC)CC(=O)N[C@H](CC(=O)O)C(=O)NCCC[C@H](COC(=O)CCCCC(O)CO)NC(=O)C[C@H](O)CCCCCCCCCCC (stereo partly drawn) [OM-197-MC-FV5, N—[(R)-3-dodecanoyloxytetradecanoylamino]-D-aspartic acid, α-N-{(4R)-5-hydroxy-4-[(R)-3-hydroxytetra-decanoylamino]-pentyl}amide 5-O-(6,7-dihydroxyheptanoate)] | 1.75 | 0.80 | 50 | 32.0 (≈ 31.6 µM) | 8.20 | 86.5 | 6.4 | – | – | 0 | 104 | 116 | 49.3 EU/mg of product | 3.9 ng of LPS equivalent per mg of product | – | – | – | – | – | –
